This note sets out measurements from patent publication US20100093642A1, “NOVEL POLYPEPTIDES” (priority 2006, published 2010).

In assay [1] the test system is E. coli (ATCC 25922). The format is cell-based, Escherichia coli. On the procedure: (§1) The antibacterial activities of the different peptides were determined by continuous monitoring of bacterial growth with a Bioscreen C microbiology reader (Labsystems Oy, Helsinki, Finland). The test was performed in 100-well flat-bottomed honeycomb plates, in which 50 μl of test fractions were incubated with 50 μl of a suspension of an actively growing culture of bacteria diluted in Mueller Hinton medium to a starting concentration of 3×10^4 cells per ml. […] [NT] 13032) and S. aureus (ATCC 9144), were chosen as test bacteria. […] Polymyxin B (Sigma, St.

Assay [2] concerns Pseudomonas aeruginosa. The format is cell-based. On the procedure: as §1
Assay [3] deals with S. aureus (ATCC 9144). The format is cell-based, Staphylococcus aureus. As to conditions: ATCC 9144. As to the method:
as §1

The test system of assay [4] is Botrytis cinerea 101. The settings on record: 48 h. On the procedure: (§2) The various derivates of P17 (brominated and non-brominated) were tested for their ability to inhibit fungal growth of the yeast strains Saccaharomyces cerevisiae sp, Candida albicans (ATCC 10231) and Rodotorula sp., and the filamentous strains Botrytis cinerea 101, Penicillium rogveforti, and Fusarium sp. All strains, except C. albicans, were a gift from Prof. A. Tronsmo (The Norwegian University of Life Sciences, Ås, Norway). The fungi were cultivated on potato dextrose agar, supplemented with 2% glucose, at room temperature. Before antifungal testing, the fungi were dissolved in potato dextrose broth (Difco) at half-strength. Cell concentration was determined and adjusted after counting in a Bürker chamber. The filamentous fungi were filtered through a piece of cotton before counting. An aliquot of 50 μl of fungal spores (final concentration 2×10^5 spores per ml) were inoculated in microtiter plates (96 wells) along with 50 μl peptide solution. Peptides, dissolved in distilled water, were tested at final concentrations (two-fold dilutions) ranging from 50 μM to 0.1 μM. Cultures were grown in the dark (without shaking) and with a moist chamber at 25° C. (37° C. for C. albicans). Growth inhibition was determined microscopically after 48 h of incubation. MIC was determined as the lowest concentration of peptide resulting in 50% inhibition of visible growth.

The test system of assay [5] is Candida albicans (ATCC 10231). As to conditions: ATCC 10231, 48 h. On the procedure: as §2
Assay [6] concerns Saccharomyces cerevisiae. As to conditions: 48 h. On the procedure:
as §2

Assay [7] deals with Salmonella enterica serovar typhimurium (ATCC 14028). As to the kind of experiment: Bacterial cell viability, lux luminescence and OD600, with or without LPS. The format is cell-based. As to conditions: co-incubation with 2.5 μM Aeromonas salmonicida LPS. The text has this:
To evaluate the effect of antimicrobial peptides on the viability of bacteria in a fast and reliable manner we used the lux CDABE operon from Photorhabdus luminescens as a reporter system in gram negative test bacteria and the modified luxABCDE operon in S. aureus (Vesterlund et al. 2004). Bacterial bioluminescence is directly dependent on metabolic activity, since reduction equivalents are needed to drive light emission. Any form of interruption of bacterial cell integrity or metabolism will therefore be detected as a reduction in light emission.
For the assay we used S. aureus (RN4220), E. coli K-12 and Salmonella enterica serovar typhimurium (ATCC 14028) transformed with the respective lux-operon containing plasmids (Vesterlund et al. 2004).
For each experiment a fresh colony was picked from Luria-Bertani plates supplemented with 10 μg/ml of erythromycin in case of S. aureus and with 100 μg/ml of ampicillin in case of E. coli and S. enterica serovar Typhimurium. Each colony was suspended in 5 ml of Müller-Hinton medium with appropriate antibiotics. The culture was incubated over night at 37° C. in a shaking incubator. The next morning 0.5 ml of this culture was transferred to 30 ml fresh MH medium in an Erlenmeyer-flask supplemented with the respective antibiotic. The flask was incubated (200 rpm shaking; 37° C.) until an OD600 of 0.5-0.8 was reached. The culture was then diluted to an OD600 of about 0.02-0.03 before transfer to the 96 well opaque plates with optical bottom (Packard ViewPlate) used for the assay.
The synthesized peptides were dissolved in water and aliquots frozen at −18° C. until use. Twofold dilutions of test peptides (final concentrations ranging from 0.31 to 80 μM) were directly prepared in 96 well microtiter plates in a volume of 10 μl in water. 90 μl is of indicator bacteria in MH medium were added directly to the prepared and pre-warmed (30 minutes at 37° C.) plate before starting the measurement in a Victor multiplate reader (Perkin Elmer) at 37° C. Both OD600 and luminescence in counts per second (cps) were followed over 5 hours in measuring intervals of 5 minutes. The plates where shaken before each measurement (20 sec.; 5 mm orbital shaking; 10 sec waiting). The growth curves and light emission curves were drawn and evaluated to determine the MIC for each indicator strain. The MIC was defined as the concentration of test compound causing more than 50% reduction in bioluminescence (cps) or optical density (OD600) after 5 hours, compared to the growth control. Cecropin P1 was used as positive control. The results (table 14a-b) confirm the results obtained in example 2, showing a pronounced antibacterial effect of the longest peptide fragments. […] The partial peptides P17 HC (1-20), both bromated and unbromated, inhibit growth only in higher concentrations.
A second plate with an otherwise similar setup (as described for the luminescence assay in example 3) was prepared, but with addition of Aeromonas salmonicida LPS to the peptide dilutions before pre-warming. The LPS end concentration in each well was approximately 2.5 μM.

Assay [8] has as its system C. glutamicum (ATCC 13032). The format is cell-based, Corynebacterium glutamicum. As to the method: as §1

≈ marks a conversion by molar mass, not a printed value. Residues, ends and D or L forms follow the SMILES beside them. No end group written: not given here.

On to `NCCCC[C@H](NC(=O)[C@H](CCCCN)NC(=O)[C@H](Cc1ccccc1)NC(=O)C(Cc1c[nH]c2ccc(Br)cc12)NC(=O)CN)C(=O)O` (some centres unmarked) [P17 HC-Br (1-5)] (HELM PEPTIDE1{G.[O=C(C(Cc1c[nH]c2ccc(Br)cc12)N[*:1])[*:2]].F.K.K}$$$$V2.0; N-terminus and C-terminus assumed), for which the “Minimal inhibitory concentration, E. coli” value in assay [1] came to 25 µM (≈ 18.6 µg/mL). Moreover, the “Minimal inhibitory concentration, P. aeruginosa” value in assay [2] is greater than 50 µM. Also, the “Minimal inhibitory concentration, S. aureus” value in assay [3] is greater than 100 µM. The “Minimal inhibitory concentration (MIC), Botrytis cinerea” value in assay [4] was greater than 100 µM. In addition, the “Minimal inhibitory concentration (MIC), Candida albicans” value in assay [5] was greater than 100 µM. Also, the “Minimal inhibitory concentration (MIC), Saccharomyces cerevisiae” value in assay [6] is greater than 100 µM.

For the compound `CC(C)[C@H](NC(=O)[C@H](CCCCN)NC(=O)[C@H](Cc1c[nH]cn1)NC(=O)[C@H](Cc1ccccc1)NC(=O)[C@@H](NC(=O)[C@H](CCCCN)NC(=O)[C@H](CCCCN)NC(=O)[C@H](Cc1ccccc1)NC(=O)C(Cc1c[nH]c2ccc(Br)cc12)NC(=O)CN)[C@@H](C)O)C(=O)O` (some centres unmarked) [P17 HC-Br (1-10)] (HELM PEPTIDE1{G.[O=C(C(Cc1c[nH]c2ccc(Br)cc12)N[*:1])[*:2]].F.K.K.T.F.H.K.V}$$$$V2.0; N-terminus and C-terminus assumed), the “Minimal inhibitory concentration, E. coli” value in assay [1] worked out at 25 µM (≈ 33.9 µg/mL). Also, in assay [2], the “Minimal inhibitory concentration, P. aeruginosa” value was greater than 50 µM. Moreover, in assay [3], the “Minimal inhibitory concentration, S. aureus” value is greater than 100 µM. Also, the “Minimal inhibitory concentration (MIC), Botrytis cinerea” value in assay [4] worked out at 50 µM (≈ 67.8 µg/mL). Also, the “Minimal inhibitory concentration (MIC), Candida albicans” value in assay [5] was determined as 25 µM (≈ 33.9 µg/mL). The “Minimal inhibitory concentration (MIC), Saccharomyces cerevisiae” value in assay [6] came out at 25 µM (≈ 33.9 µg/mL). The “MIC, more than 50% reduction in optical density, S. enterica, P + LPS” value in assay [7] (OD600, 5 hours) is 40 µM. The “MIC, more than 50% reduction in luminescence, S. enterica, P + LPS” value in assay [7] (luminescence (cps), 5 hours) turned out to be 20 µM.

Take GQRGCSALGF [P17 HC (21-30)]: in assay [1], the “Minimal inhibitory concentration, E. coli” value was greater than 100 µM. In addition, in assay [2], the “Minimal inhibitory concentration, P. aeruginosa” value is greater than 100 µM. In assay [8], the “Minimal inhibitory concentration, C. glutamicum” value was greater than 100 µM. Moreover, the “Minimal inhibitory concentration, S. aureus” value in assay [3] was greater than 100 µM. Moreover, the “Minimal inhibitory concentration (MIC), Botrytis cinerea” value in assay [4] was greater than 100 µM. Moreover, in assay [5], the “Minimal inhibitory concentration (MIC), Candida albicans” value was greater than 100 µM. In addition, the “Minimal inhibitory concentration (MIC), Saccharomyces cerevisiae” value in assay [6] is greater than 100 µM.

In the case of GWFKK [P17 HC (1-5)], the “Minimal inhibitory concentration, E. coli” value in assay [1] is greater than 100 µM. Besides, the “Minimal inhibitory concentration, P. aeruginosa” value in assay [2] was greater than 100 µM. Also, in assay [8], the “Minimal inhibitory concentration, C. glutamicum” value was greater than 100 µM. The “Minimal inhibitory concentration, S. aureus” value in assay [3] was greater than 100 µM. For the same compound, in assay [4], the “Minimal inhibitory concentration (MIC), Botrytis cinerea” value is greater than 100 µM. Further, in assay [5], the “Minimal inhibitory concentration (MIC), Candida albicans” value was greater than 100 µM. Also, the “Minimal inhibitory concentration (MIC), Saccharomyces cerevisiae” value in assay [6] was greater than 100 µM.

For GWFKKTFHKV [P17 HC (1-10)], the “Minimal inhibitory concentration, E. coli” value in assay [1] is 100 µM. The “Minimal inhibitory concentration, P. aeruginosa” value in assay [2] was found to be 100 µM. Further, the “Minimal inhibitory concentration, C. glutamicum” value in assay [8] was determined as 12.5 µM. Moreover, the “Minimal inhibitory concentration, S. aureus” value in assay [3] is greater than 100 µM. Besides, the “Minimal inhibitory concentration (MIC), Botrytis cinerea” value in assay [4] worked out at 100 µM. For the same compound, in assay [5], the “Minimal inhibitory concentration (MIC), Candida albicans” value turned out to be 25 µM. Besides, the “Minimal inhibitory concentration (MIC), Saccharomyces cerevisiae” value in assay [6] amounted to 25 µM.
